Data: US7442554B2, “Compositions and methods involving glucocorticoid receptor site II” (Bristol-Myers Squibb Company, priority 2002, dated 2008)
Entries after “also recorded” stand apart in the source; their conditions may differ. Where two headings read alike, the source gives them in different places.

Legend:
[1] = biological target: T1, human full-length glucocorticoid receptor (Homo sapiens, UniProt P04150); test: GR Site I binding assay (FITC-dexamethasone fluorescence polarization, Panvera kit)
T1 construct: recombinantly expressed human full-length glucocorticoid receptor; purchased Panvera Co., Madison, Wis
T1 sequence (P04150 1-777): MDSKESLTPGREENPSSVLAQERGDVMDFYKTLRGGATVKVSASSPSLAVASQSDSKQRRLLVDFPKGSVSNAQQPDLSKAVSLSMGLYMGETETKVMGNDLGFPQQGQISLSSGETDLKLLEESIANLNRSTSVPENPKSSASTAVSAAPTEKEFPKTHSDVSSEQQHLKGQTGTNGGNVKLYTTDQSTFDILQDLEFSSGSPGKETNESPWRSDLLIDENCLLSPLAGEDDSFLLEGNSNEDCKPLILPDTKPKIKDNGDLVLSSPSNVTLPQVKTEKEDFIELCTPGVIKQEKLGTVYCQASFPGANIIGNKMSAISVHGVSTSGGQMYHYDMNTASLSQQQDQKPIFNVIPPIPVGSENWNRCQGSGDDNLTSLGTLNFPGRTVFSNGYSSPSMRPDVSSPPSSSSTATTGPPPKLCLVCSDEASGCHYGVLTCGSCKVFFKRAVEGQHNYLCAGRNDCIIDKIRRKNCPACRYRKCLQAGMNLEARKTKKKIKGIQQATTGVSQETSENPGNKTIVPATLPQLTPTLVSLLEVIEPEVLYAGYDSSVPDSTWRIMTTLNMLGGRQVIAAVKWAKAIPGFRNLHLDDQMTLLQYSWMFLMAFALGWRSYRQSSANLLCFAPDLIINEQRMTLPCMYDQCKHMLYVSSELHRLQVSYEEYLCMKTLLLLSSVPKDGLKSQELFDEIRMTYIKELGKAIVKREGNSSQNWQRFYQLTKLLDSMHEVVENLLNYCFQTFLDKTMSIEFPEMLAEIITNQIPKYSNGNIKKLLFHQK
Experimental: In order to measure the binding of compounds to Site I on the glucocorticoid receptor a commercially available kit was used (Glucocorticoid receptor competitor assay kit, Panvera Co., Madison, Wis.). Briefly, a cell lysate containing recombinantly expressed human full-length glucocorticoid receptor was mixed with a fluorescently labeled glucocorticoid (4 nM FITC-dexamethasone) plus or minus test molecule. After one hour at room temperature, the fluorescence polarization (FP) of the samples were measured.

Site II on GR = biological target: T2, Site II on GR (Homo sapiens, UniProt P04150); test: Indirect Site II assay: modified FITC-dexamethasone FP assay with Compound D; assay type: binding
T2 construct: recombinantly expressed human full-length glucocorticoid receptor; purchased Panvera Co., Madison, Wis
T2 sequence (P04150 1-777): T1 sequence (P04150 1-777)
Experimental: In order to measure the binding of putative Site II compounds to GR we utilized the Glucocorticoid receptor competitor assay kit (Panvera Co., Madison, Wis.) in a modified version of the FITC-dexamethasone fluorescence polarization assay described in Example 2. In this assay, Compound D was added at a concentration of 200 nM, which yields approximately 50% inhibition of FITC-dexamethasone binding. Compound D (an R enantiomer) is Compound 50 of Example 1. Compound D is a ligand of Site II that inhibits via Site II FITC-dexamethasone binding to GR. […] These competitor Site II ligands, all compounds of Example 1 and all S enantiomers, were: Compound A; Compound C, which is the S enantiomer of Compound D; and Compound E, yet another S enantiomer of Example 1. If the competitor compound binds to Site II and displaces Compound D, then FITC-dexamethasone should rebind to GR. […] This assay can therefore measure the relative binding of compounds to the Site II on GR.

[2] = biological target: T3, GAL4 DNA binding domain linked to the ligand binding domain of GR (Homo sapiens, UniProt P04150); test: Cellular transcriptional assay (HeLa, GAL4-GR LBD, luciferase); assay type: cell-based
T3 construct: expressed in transfected cells; host or cells: HeLa (stably transfected)
T3 sequence (P04150 524-758 limits assumed): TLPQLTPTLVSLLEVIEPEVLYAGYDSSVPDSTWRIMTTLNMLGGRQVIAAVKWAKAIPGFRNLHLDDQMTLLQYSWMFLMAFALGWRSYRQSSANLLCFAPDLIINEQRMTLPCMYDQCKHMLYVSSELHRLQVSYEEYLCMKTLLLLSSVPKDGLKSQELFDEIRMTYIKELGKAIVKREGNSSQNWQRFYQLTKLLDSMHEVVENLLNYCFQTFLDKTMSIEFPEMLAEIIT
Experimental: In order to measure the ability of compounds to induce DNA binding and transcriptional activation in cells the following assay was performed. A HeLa cell line was stably transfected with a gene expressing a fusion protein consisting of the GAL4 DNA binding domain linked to the ligand binding domain of GR. Also transfected into these cells was a DNA binding site for GAL4 (5 repetitions of a 17-mer GAL4 binding site) linked to the beta-globin reporter in front of the luciferase gene. See Eisenmann, G., Cheynel, and Gronemeyer, H. (1995), Quand les cellules scintillent, Biofutur (Le Technoscope), 151: 8. […] After 20 hours the level of luciferase activity was measured using a Steady Glo Luciferase assay system (Promega Co., Madison, Wis.). […] EC50s were calculated by using standard curve fitting methods such as Excel Fit (Microsoft Co., Redmond, Wash.). An EC50 is the test molecule concentration required to cause a 50% stimulation of transcription.

[3] = test system: AP-1 induced transcriptional activity; test: Cellular transrepressional assay (AP-1 luciferase reporter, A549 cell, PMA); assay type: cell-based; conditions: for IC50: read-out: IC50 for transrepression
Experimental: To measure the ability of test molecules to inhibit AP-1 induced transcriptional activity we utilized an A549 cell which was stably transfected with a plasmid containing 7×AP-1 DNA binding sites (pAP-1-Luc plasmid, Stratagene Co. La Jolla, Calif.) followed by the gene for luciferase. Cells were activated with 10 ng/ml of phorbol myristic acid (PMA) plus or minus test molecules for 7 hours. After 7 hours a luciferase reagent was added to measure luciferase enzymatic activity in the cell. After a 10 minute incubation of luciferase reagent with cells, luminescence was measured in a TopCount luminescence counter. Repression of AP-1 activity was calculated as the percentage decrease in the signal induced by PMA alone. […] IC50s were determined by using standard curve fitting methods such as Excel fit (Microsoft Co.). An IC50 is the test molecule concentration which causes a 50% repression of transcription, i.e. a 50% reduction of AP-1 activity.

[4] = test system: tyrosine amino transferase mRNA; test: cells; conditions: read-out: EC50 for induction of tyrosine amino transferase mRNA
Experimental: A second assay which measures the ability of compounds to induce the expression of tyrosine amino transferase mRNA in liver cells was also utilized to determine the ability of compounds to induce DNA binding. […] Test molecules were analyzed in the concentration range from 0.1 nM to 40 μM.

Row | displacement of Compound D allowing FITC-dexamethasone to rebind to GR (Site II on GR; Compound D at 200 nM) | inhibition at 0.2 µM (Site II on GR; 200 nM, read-out: inhibition of FITC-dexamethasone binding) [%] | SMILES | inhibition of dexamethasone binding to GR by the compound on its own [1] | % stimulation ([2]; absence of Compound A) [%] | % stimulation ([2]; presence of Compound A) [%] | IC50 ([3]; Homo sapiens, A549, absence of Compound A) [nM] | IC50 ([3]; Homo sapiens, A549, presence of 800 nM Compound A) [nM] | inhibition at 0.8 µM ([3]; Homo sapiens, A549, presence of 800 nM Compound A, read-out: percent inhibition) [%] | maximum percent inhibition ([3]; absence of Compound A) [%] | EC50 [4] [nM]
1 | effective at displacing Compound D |  | Cc1ccc(-c2csc(NC(=O)C3(C)CC4(C#N)c5ccccc5C3c3ccccc34)n2)c2ccccc12 (centres unmarked) [Compound C] | do not inhibit dexamethasone binding; also recorded: do not inhibit dexamethasone on their own |  |  |  |  |  |  | 
2 |  | ~50 | Cc1ccc(-c2csc(NC(=O)C3(C)CC4(C#N)c5ccccc5C3c3ccccc34)n2)c2ccccc12 (centres unmarked) [Compound D] | does inhibit dexamethasone |  |  |  |  |  |  | 
3 |  |  | C[C@@H]1C[C@H]2[C@@H]3CCC4=CC(=O)C=C[C@]4(C)[C@@]3(F)[C@@H](O)C[C@]2(C)[C@@]1(O)C(=O)CO [dexamethasone] |  | 100 | 47 | 3.4 | 1.2 | 100 | 75 | ~50
